Measured values reported in patent US9855256B2, “Cyclooxygenase inhibitor and calcium channel antagonist compositions and methods for use in urological procedures” (Omeros Corporation, priority 2005, dated 2018).

Experiments:
[1] = system: Isolated bladder smooth muscle strips; assay: Bladder strip contractility (bradykinin-induced contraction), Examples I and II; assay type: cell-based, rat
[2] = system: overactive bladder function; assay: Acetic-acid overactive bladder model, intravesical local delivery, cystometry, Example V; settings: 0.2% acetic acid
Experimental: In this model, acute inflammation of the bladder is produced by using 0.2% acetic acid in saline as the bladder perfusion fluid and cystometry under anesthesia is performed after a recovery period from the surgical procedure.
The animals were anesthesized and bladder catheters were surgically implanted to allow irrigation of the test agents. The following cystometry parameters were monitored: intercontraction interval (ICI), trigger pressure (TP), micturition pressure (MP) and micturition volume (MV) using a Med Associates Cystometry Station and software program. […] Following the saline period, the rat bladder was infused with test agent in saline containing 0.2% acetic acid for 20 min followed by the collection of 7 representative ICI intervals for analysis.
Five to seven animals were normally tested in each group. Acidified saline served as the control. All infusion solutions were prepared fresh on the day of the experiment before use.

urinary bladder = assay: In vivo rat cystometry model, 0.2% acetic acid infusion, intravenous drug; settings: 10 mg/kg i.v.
Experimental: The rats were anesthetized with urethane at 1.2 g/kg i.p. in 5 ml/kg. A polyethylene catheter (PE50) was implanted into the bladder for saline or acetic acid infusion through a 3-way stopcock. A pressure transducer was connected for measurements of intravesical pressure. Warm (37° C.) saline was infused into the bladder at a constant rate of […] (1 ml/hour) until cystometry became stable (no less than 60 minutes). Thereafter, 0.2% acetic acid was infused into the urinary bladder. Aspirin (10 mg/kg i.v.) and vehicle were administered intravenously via a PE-10 catheter in the femoral vein at 5 minutes after infusion of acetic acid was started and at the end of first micturition cycle. Dunnett's test was applied for comparison between the time before and after test substance or vehicle treatment. To ascertain differences between the test substance and the vehicle control group, an unpaired Student's t test was used. Differences are considered significant at […].

PGE2 = settings: 10 μM perfusion 60 min then saline 30 min; bladders harvested at 90 min

COC(=O)C1=C(C)NC(C)=C(C(=O)OC)C1c1ccccc1[N+](=O)[O-] [Nifedipine, 1,4-dihydro-2,6-dimethyl-4-(2-nitrophenyl)-3,5-pyridinedicarboxylic acid dimethyl ester]
type of antagonism upon bradykinin-induced contractile responses ([1]; single agents, 10 min incubation): noncompetitive
concentration of maximal effects on shortening of the ICI ([2]; in irrigation buffer, female rats): ~1 µM
ICI plateau at higher concentrations, of baseline ([2]; nifedipine above 1 μM): approximately 75%

CC(=O)Oc1ccccc1C(=O)O [aspirin]
bladder capacity (urinary bladder): parallel changes
effect on acetic acid induced reduction in the intercontraction interval (ICI) (urinary bladder): gradual time-dependent inhibition
micturition pressure (urinary bladder): not affected
threshold pressure (urinary bladder): not affected

CC(C(=O)O)c1cccc(C(=O)c2ccccc2)c1 (stereo not drawn) [Ketoprofen, 3-benzoyl-α-methylbenzeneacetic acid]
effect on maximal tension ([1]; ketoprofen 0.25-10 μM): no apparent effect
bladder tissue PGE2 levels (PGE2): 83±22 pg/mg protein
